# According to patent US20130102493A1, “GENE EXPRESSION ANALYSES FOR CHARACTERIZING AND IDENTIFYING GENOTOXIC COMPOUNDS” (MERCK PATENT GESELLSCHAFT MIT BESCHRANKTER HAFTUNG, priority 2010, published 2013):
# Read-outs that look alike come from different tables or passages of the source. Marks after values point to notes of the source that are not given here. *1 amine or outer side, *2 acyl side, *3 side chain or, on linkers, in order; H or OH if unused. Where a SMILES comes first, the peptide text is derived from it. Bridges are numbered along the chain shown (N, C = ends). Roman numbers before positions name the chains, in order. [ ]: non-standard residue; d: D form. Actinocin(9to1) = Cc1c2oc3c(C)ccc(C(=O)[*:1])c3nc-2c(C(=O)[*:2])c(N)c1=O; NMeV = CN[C@H](C(=O)O)C(C)C; Sar = CNCC(=O)O
# Key:
# [1] = system: HepG2 cells
# [2] = system: HepG2 cells; remark: listed apart in the source
# [3] = system: CYP competent primary hepatocytes; conditions: cited from earlier work
# [4] = system: HepG2 cells; remark: listed apart in the source
compound,measurement,setting,value
"Cc1c2oc3c(C)ccc(C(=O)N[C@@H]4C(=O)N[C@H](C(C)C)C(=O)N5CCC[C@H]5C(=O)N(C)CC(=O)N(C)[C@@H](C(C)C)C(=O)O[C@@H]4C)c3nc-2c(C(=O)N[C@@H]2C(=O)N[C@H](C(C)C)C(=O)N3CCC[C@H]3C(=O)N(C)CC(=O)N(C)[C@@H](C(C)C)C(=O)O[C@@H]2C)c(N)c1=O [ACT, actinomycin D] (I: T[dV]P[Sar][NMeV] / II: T[dV]P[Sar][NMeV]; ester I:1-I:C, II:1-II:C; linker I:N-II:N via Actinocin(9to1))",MYC gene regulation,[1],down-regulated
same,RNA polymerase II gene regulation,[1],down-regulation
same,topoisomerase II (TOPO2) gene regulation,[1],down-regulation
same,CDKN1A gene regulation relative to vehicle/S9 control,"[1]; ACT 250 nM, without S9, 48 h",−1.15 fold
same,CRABP2 gene regulation relative to vehicle/S9 control,"[1]; ACT 250 nM, without S9, 48 h",2.82* fold
same,EMP1 gene regulation relative to vehicle/S9 control,"[1]; ACT 250 nM, without S9, 48 h",1.91* fold
same,EMP3 gene regulation relative to vehicle/S9 control,"[1]; ACT 250 nM, without S9, 48 h",5.68* fold
same,IER5 gene regulation relative to vehicle/S9 control,"[1]; ACT 250 nM, without S9, 48 h",3.07* fold
same,LGALS7 gene regulation relative to vehicle/S9 control,"[1]; ACT 250 nM, without S9, 48 h",1.69* fold
same,PLAU gene regulation relative to vehicle/S9 control,"[1]; ACT 250 nM, without S9, 48 h",3.69* fold
same,PROCR gene regulation relative to vehicle/S9 control,"[1]; ACT 250 nM, without S9, 48 h",2.58* fold
same,Categorization,"[2]; 250 nM, 24 h, without S9",genotoxic
same,Categorization,"[2]; 250 nM, 48 h, without S9",genotoxic
"O=P1(N(CCCl)CCCl)NCCCO1 (centres unmarked) [CPA, cyclophosphamide]",EGR1 gene regulation,[1],up-regulation
same,"gene expression changes, single compound analysis vs vehicle controls",[1],extremely weak or no statistically significant
"CCN(CC)N=O [DEN, N-nitrosodiethylamine]",EGR1 gene regulation,[1],up-regulation
same,number of down-regulated genes,[1],57
same,number of up-regulated genes,[1],88
same,CDKN1A gene regulation relative to vehicle/S9 control,"[1]; DEN 25 mM, +S9, 48 h",1.95* fold
same,CRABP2 gene regulation relative to vehicle/S9 control,"[1]; DEN 25 mM, +S9, 48 h",2.09* fold
same,EMP1 gene regulation relative to vehicle/S9 control,"[1]; DEN 25 mM, +S9, 48 h",1.84* fold
same,EMP3 gene regulation relative to vehicle/S9 control,"[1]; DEN 25 mM, +S9, 48 h",2.26* fold
same,IER5 gene regulation relative to vehicle/S9 control,"[1]; DEN 25 mM, +S9, 48 h",1.50* fold
same,LGALS7 gene regulation relative to vehicle/S9 control,"[1]; DEN 25 mM, +S9, 48 h",1.77 fold
same,PLAU gene regulation relative to vehicle/S9 control,"[1]; DEN 25 mM, +S9, 48 h",1.84 fold
same,PROCR gene regulation relative to vehicle/S9 control,"[1]; DEN 25 mM, +S9, 48 h",1.76* fold
same,CDKN1A gene regulation relative to vehicle/S9 control,"[1]; DEN 25 mM, without S9, 48 h",−1.19 fold
same,CRABP2 gene regulation relative to vehicle/S9 control,"[1]; DEN 25 mM, without S9, 48 h",1.54* fold
same,EMP1 gene regulation relative to vehicle/S9 control,"[1]; DEN 25 mM, without S9, 48 h",1.61* fold
same,EMP3 gene regulation relative to vehicle/S9 control,"[1]; DEN 25 mM, without S9, 48 h",1.04 fold
same,IER5 gene regulation relative to vehicle/S9 control,"[1]; DEN 25 mM, without S9, 48 h",1.06 fold
same,LGALS7 gene regulation relative to vehicle/S9 control,"[1]; DEN 25 mM, without S9, 48 h",1.11 fold
same,PLAU gene regulation relative to vehicle/S9 control,"[1]; DEN 25 mM, without S9, 48 h",1.86* fold
same,PROCR gene regulation relative to vehicle/S9 control,"[1]; DEN 25 mM, without S9, 48 h",1.30 fold
same,CDKN1A gene regulation relative to vehicle/S9 control,"[1]; DEN 50 mM, +S9, 48 h",2.20* fold
same,CRABP2 gene regulation relative to vehicle/S9 control,"[1]; DEN 50 mM, +S9, 48 h",1.80* fold
same,EMP1 gene regulation relative to vehicle/S9 control,"[1]; DEN 50 mM, +S9, 48 h",2.09* fold
same,EMP3 gene regulation relative to vehicle/S9 control,"[1]; DEN 50 mM, +S9, 48 h",2.03* fold
same,IER5 gene regulation relative to vehicle/S9 control,"[1]; DEN 50 mM, +S9, 48 h",1.51 fold
same,LGALS7 gene regulation relative to vehicle/S9 control,"[1]; DEN 50 mM, +S9, 48 h",1.97* fold
same,PLAU gene regulation relative to vehicle/S9 control,"[1]; DEN 50 mM, +S9, 48 h",1.59* fold
same,PROCR gene regulation relative to vehicle/S9 control,"[1]; DEN 50 mM, +S9, 48 h",1.63* fold
same,CDKN1A gene regulation relative to vehicle/S9 control,"[1]; DEN 50 mM, without S9, 48 h",−1.48* fold
same,CRABP2 gene regulation relative to vehicle/S9 control,"[1]; DEN 50 mM, without S9, 48 h",1.40 fold
same,EMP1 gene regulation relative to vehicle/S9 control,"[1]; DEN 50 mM, without S9, 48 h",1.37 fold
same,EMP3 gene regulation relative to vehicle/S9 control,"[1]; DEN 50 mM, without S9, 48 h",1.02 fold
same,IER5 gene regulation relative to vehicle/S9 control,"[1]; DEN 50 mM, without S9, 48 h",1.03 fold
same,LGALS7 gene regulation relative to vehicle/S9 control,"[1]; DEN 50 mM, without S9, 48 h",1.23* fold
same,PLAU gene regulation relative to vehicle/S9 control,"[1]; DEN 50 mM, without S9, 48 h",1.44 fold
same,PROCR gene regulation relative to vehicle/S9 control,"[1]; DEN 50 mM, without S9, 48 h",1.20 fold
same,concentrations giving a positive response,[3],10000 to 32000 µM
same,classification by 91 gene-classifier,[4]; with S9 (MAS),genotoxic
same,classification by 91 gene-classifier,[4]; without S9,non-genotoxic
"Cc1c2ccccc2c(C)c2c1ccc1ccccc12 [DMBA, 7,12-dimethylbenz[a]anthracene]","gene expression changes, single compound analysis vs vehicle controls",[1]; DMBA 10 μM w/o S9,extremely weak or no statistically significant
same,CDKN1A gene regulation relative to vehicle/S9 control,"[1]; DMBA 10 μM, +S9, 48 h",3.18* fold
same,CRABP2 gene regulation relative to vehicle/S9 control,"[1]; DMBA 10 μM, +S9, 48 h",2.31* fold
same,EMP1 gene regulation relative to vehicle/S9 control,"[1]; DMBA 10 μM, +S9, 48 h",1.93* fold
same,EMP3 gene regulation relative to vehicle/S9 control,"[1]; DMBA 10 μM, +S9, 48 h",2.61* fold
same,IER5 gene regulation relative to vehicle/S9 control,"[1]; DMBA 10 μM, +S9, 48 h",1.83* fold
same,LGALS7 gene regulation relative to vehicle/S9 control,"[1]; DMBA 10 μM, +S9, 48 h",1.93* fold
same,PLAU gene regulation relative to vehicle/S9 control,"[1]; DMBA 10 μM, +S9, 48 h",2.13* fold
same,PROCR gene regulation relative to vehicle/S9 control,"[1]; DMBA 10 μM, +S9, 48 h",2.26* fold
same,CDKN1A gene regulation relative to vehicle/S9 control,"[1]; DMBA 10 μM, without S9, 48 h",1.36 fold
same,CRABP2 gene regulation relative to vehicle/S9 control,"[1]; DMBA 10 μM, without S9, 48 h",1.10 fold
same,EMP1 gene regulation relative to vehicle/S9 control,"[1]; DMBA 10 μM, without S9, 48 h",1.11 fold
same,EMP3 gene regulation relative to vehicle/S9 control,"[1]; DMBA 10 μM, without S9, 48 h",1.18 fold
same,IER5 gene regulation relative to vehicle/S9 control,"[1]; DMBA 10 μM, without S9, 48 h",1.30* fold
same,LGALS7 gene regulation relative to vehicle/S9 control,"[1]; DMBA 10 μM, without S9, 48 h",1.25* fold
same,PLAU gene regulation relative to vehicle/S9 control,"[1]; DMBA 10 μM, without S9, 48 h",1.29* fold
same,PROCR gene regulation relative to vehicle/S9 control,"[1]; DMBA 10 μM, without S9, 48 h",1.18 fold
same,regulation of the 91 genes,[1]; DMBA 75 μM w/o S9,relatively weak
same,CDKN1A gene regulation relative to vehicle/S9 control,"[1]; DMBA 75 μM, without S9, 48 h",1.50* fold
same,CRABP2 gene regulation relative to vehicle/S9 control,"[1]; DMBA 75 μM, without S9, 48 h",1.27 fold
same,EMP1 gene regulation relative to vehicle/S9 control,"[1]; DMBA 75 μM, without S9, 48 h",1.31 fold
same,EMP3 gene regulation relative to vehicle/S9 control,"[1]; DMBA 75 μM, without S9, 48 h",1.38* fold
same,IER5 gene regulation relative to vehicle/S9 control,"[1]; DMBA 75 μM, without S9, 48 h",1.26* fold
same,LGALS7 gene regulation relative to vehicle/S9 control,"[1]; DMBA 75 μM, without S9, 48 h",1.26 fold
same,PLAU gene regulation relative to vehicle/S9 control,"[1]; DMBA 75 μM, without S9, 48 h",1.53* fold
same,PROCR gene regulation relative to vehicle/S9 control,"[1]; DMBA 75 μM, without S9, 48 h",1.32* fold
same,Categorization,"[2]; 10 μM, 48 h, with S9",genotoxic
same,Categorization,"[2]; 75 μM, 48 h, without S9",genotoxic^#
same,Categorization,"[2]; DMBA 10 μM, 48 h, without S9",non-genotoxic
same,prediction using the 91 top-scored genes,[4]; 75 μM w/o S9,predicted correctly
"COS(C)(=O)=O [MMS, methyl methanesulfonate]",EGR1 gene regulation,[1],up-regulation
same,MYC gene regulation,[1],down-regulated
same,AP endonuclease 2 (APEX2) gene regulation,[1]; after 24 h and 48 h treatment,up-regulated
same,β-polymerase (POLB) gene regulation,[1]; after 48 h exposure,up-regulated
aflatoxin B1 [AFB1],EGR1 gene regulation,[1],up-regulation
same,"gene expression changes, single compound analysis vs vehicle controls",[1],extremely weak or no statistically significant
